Data: patent publication US10568950B1, “Peptides, combination of peptides and scaffolds for use in immunotherapeutic treatment of various cancers” (Immatics Biotechnologies GmbH, priority 2015, dated 2020)

System: HLA-A*24
Experiment: MHC binding assay: UV-ligand exchange, beta2m ELISA (peptide exchange yield)
Parameters: species or system human
Conditions: binding to HLA-A*24, β2m ELISA
Source text: Candidate peptides for T cell based therapies according to the present invention were further tested for their MHC binding capacity (affinity). The individual peptide-MHC complexes were produced by UV-ligand exchange, where a UV-sensitive peptide is cleaved upon UV-irradiation, and exchanged with the peptide of interest as analyzed. Only peptide candidates that can effectively bind and stabilize the peptide-receptive MHC molecules prevent dissociation of the MHC complexes. To determine the yield of the exchange reaction, an ELISA was performed based on the detection of the light chain (β2m) of stabilized MHC complexes. The assay was performed as generally described in Rodenko et al. (Rodenko et al., 2006).
96 well MAXISorp plates (NUNC) were coated over night with 2 ug/ml streptavidin in PBS at room temperature, washed 4× and blocked for 1 h at 37° C. in 2% BSA containing blocking buffer. […] Peptide-MHC monomers of the UV-exchange reaction were diluted 100 fold in blocking buffer. Samples were incubated for 1 h at 37° C., washed four times, incubated with 2 ug/ml HRP conjugated anti-βm for 1 h at 37° C., washed again and detected with TMB solution that is stopped with […]. Absorption was measured at 450 nm. Candidate peptides that show a high exchange yield (preferably higher than 50%, most preferred higher than 75%) are generally preferred for a generation and production of antibodies or fragments thereof, and/or T cell receptors or fragments thereof, as they show sufficient avidity to the MHC molecules and prevent dissociation of the MHC complexes.

Row | Substance | Peptide exchange (MHC class I binding score, peptide exchange yield)
1 | 197 (IFTDIFHYL; listed as Homo sapiens) [compound 197] | ++++ (>= 75% = ++++)
2 | 206 (NYLDVATFL; listed as Homo sapiens) [compound 206] | ++++ (>= 75% = ++++)
3 | 208 (TYLEKIDGF; listed as Homo sapiens) [compound 208] | ++++ (>= 75% = ++++)
4 | 209 (AFIETPIPLF; listed as Homo sapiens) [compound 209] | ++++ (>= 75% = ++++)
5 | 210 (IYAGVGEFSF; listed as Homo sapiens) [compound 210] | ++++ (>= 75% = ++++)
6 | 211 (VFKSEGAYF; listed as Homo sapiens) [compound 211] | ++++ (>= 75% = ++++)
7 | 217 (IYISNSIYF; listed as Homo sapiens) [compound 217] | ++++ (>= 75% = ++++)
8 | 220 (SYSEIKDFL; listed as Homo sapiens) [compound 220] | ++++ (>= 75% = ++++)
9 | 221 (KYIGNLDLL; listed as Homo sapiens) [compound 221] | ++++ (>= 75% = ++++)
10 | 223 (TFITQSPLL; listed as Homo sapiens) [compound 223] | ++++ (>= 75% = ++++)
11 | 231 (AFADVSVKF; listed as Homo sapiens) [compound 231] | ++++ (>= 75% = ++++)
12 | 248 (AFPTFSVQL; listed as Homo sapiens) [compound 248] | ++++ (>= 75% = ++++)
13 | 249 (RYHPTTCTI; listed as Homo sapiens) [compound 249] | ++++ (>= 75% = ++++)
14 | 252 (AFGQETNVPLNNF; listed as Homo sapiens) [compound 252] | ++++ (>= 75% = ++++)
15 | 260 (VYMNVMTRL; listed as Homo sapiens) [compound 260] | ++++ (>= 75% = ++++)
16 | 261 (GYIKLINFI; listed as Homo sapiens) [compound 261] | ++++ (>= 75% = ++++)
17 | 262 (VYSSQFETI; listed as Homo sapiens) [compound 262] | ++++ (>= 75% = ++++)
18 | 264 (LYTETRLQF; listed as Homo sapiens) [compound 264] | ++++ (>= 75% = ++++)
19 | 265 (SYLNEAFSF; listed as Homo sapiens) [compound 265] | ++++ (>= 75% = ++++)
20 | 271 (RFLMKSYSF; listed as Homo sapiens) [compound 271] | ++++ (>= 75% = ++++)

Row | Substance | Peptide exchange (MHC class I binding score, peptide exchange yield)
21 | 272 (RYVFPLPYL; listed as Homo sapiens) [compound 272] | ++++ (>= 75% = ++++)
22 | 274 (KQLDIANYELF; listed as Homo sapiens) [compound 274] | ++++ (>= 75% = ++++)
23 | 275 (KYGTLDVTF; listed as Homo sapiens) [compound 275] | ++++ (>= 75% = ++++)
24 | 276 (QYLDVLHAL; listed as Homo sapiens) [compound 276] | ++++ (>= 75% = ++++)
25 | 280 (TYNPNLQDKL; listed as Homo sapiens) [compound 280] | ++++ (>= 75% = ++++)
26 | 286 (SYGTILSHI; listed as Homo sapiens) [compound 286] | ++++ (>= 75% = ++++)
27 | 289 (FFHEGQYVF; listed as Homo sapiens) [compound 289] | ++++ (>= 75% = ++++)
28 | 290 (KYGDFKLLEF; listed as Homo sapiens) [compound 290] | ++++ (>= 75% = ++++)
29 | 292 (FYPQIINTF; listed as Homo sapiens) [compound 292] | ++++ (>= 75% = ++++)
30 | 293 (VYPHFSTTNLI; listed as Homo sapiens) [compound 293] | ++++ (>= 75% = ++++)
31 | 296 (SYQVIFQHF; listed as Homo sapiens) [compound 296] | ++++ (>= 75% = ++++)
32 | 297 (TYIDTRTVF; listed as Homo sapiens) [compound 297] | ++++ (>= 75% = ++++)
33 | 298 (AYKSEVVYF; listed as Homo sapiens) [compound 298] | ++++ (>= 75% = ++++)
34 | 301 (KFDDVTMLF; listed as Homo sapiens) [compound 301] | ++++ (>= 75% = ++++)
35 | 305 (NYENKQYLF; listed as Homo sapiens) [compound 305] | ++++ (>= 75% = ++++)
36 | 311 (EYLQNLNHI; listed as Homo sapiens) [compound 311] | ++++ (>= 75% = ++++)
37 | 313 (KYTHFIQSF; listed as Homo sapiens) [compound 313] | ++++ (>= 75% = ++++)
38 | 319 (KYSDVKNLI; listed as Homo sapiens) [compound 319] | ++++ (>= 75% = ++++)
39 | 357 (QFITSTNTF; listed as Homo sapiens) [compound 357] | ++++ (>= 75% = ++++)
40 | 379 (VFIAQGYTL; listed as Homo sapiens) [compound 379] | ++++ (>= 75% = ++++)

System: CD8+ T cells of healthy HLA-A*24+ donors
Experiment: In vitro immunogenicity: priming of CD8+ T cells with aAPCs loaded with HLA-A*24/peptide complexes and anti-CD28, multimer staining
Assay type: cell-based, human
Conditions: in vitro immunogenicity, HLA-A*24 peptides of Table 12B
Method: CD8+ T cells were primed using artificial APCs coated with anti-CD28 mAb and HLA-A*24 in complex with SEQ ID NO: 99 peptide (FIG. 5A, left panel), SEQ ID NO: 119 peptide (FIG. 5B, left panel), SEQ ID NO: 142 peptide (FIG. 5C, left panel) and SEQ ID NO: 174 peptide (FIG. 5D, left panel), respectively. After three cycles of stimulation, the detection of peptide-reactive cells was performed by 2D multimer staining with A*24/SEQ ID NO: 99 (A), A*24/SEQ ID NO: 119 (B), A*24/SEQ ID NO: 142 (C) or A*24/SEQ ID NO: 174 (D). Right panels (FIGS. 5A, 5B, 5C and 5D) show control staining of cells stimulated with irrelevant A*24/peptide complexes. Viable singlet cells were gated for CD8+ lymphocytes. Boolean gates helped excluding false-positive events detected with multimers specific for different peptides. Frequencies of specific multimer+ cells among CD8+ lymphocytes are indicated.
In order to obtain information regarding the immunogenicity of the TUMAPs of the present invention, the inventors performed investigations using an in vitro T-cell priming assay based on repeated stimulations of CD8+ T cells with artificial antigen presenting cells (aAPCs) loaded with peptide/MHC complexes and anti-CD28 antibody.
PBMCs and isolated CD8+ lymphocytes were incubated in T-cell medium (TCM) until use consisting of RPMI-Glutamax (Invitrogen, Karlsruhe, Germany) supplemented with 10% heat inactivated human AB serum (PAN-Biotech, Aidenbach, Germany), 100 U/ml Penicillin/100 μg/ml Streptomycin (Cambrex, Cologne, Germany), 1 mM sodium pyruvate (CC Pro, Oberdorla, Germany), 20 μg/ml Gentamycin (Cambrex). 2.5 ng/ml IL-7 (PromoCell, Heidelberg, Germany) and 10 U/ml IL-2 (Novartis Pharma, Nurnberg, Germany) were also added to the TCM at this step.
Generation of pMHC/anti-CD28 coated beads, T-cell stimulations and readout was performed in a highly defined in vitro system using four different pMHC molecules per stimulation condition and 8 different pMHC molecules per readout condition.
The purified co-stimulatory mouse IgG2a anti human CD28 Ab 9.3 (Jung et al., 1987) was chemically biotinylated using Sulfo-N-hydroxysuccinimidobiotin as recommended by the manufacturer (Perbio, Bonn, Germany). Beads used were 5.6 μm diameter streptavidin coated polystyrene particles (Bangs Laboratories, Illinois, USA).
800.000 beads/200 μl were coated in 96-well plates in the presence of 4×12.5 ng different biotin-pMHC, washed and 600 ng biotin anti-CD28 were added subsequently in a volume of 200 μl. Stimulations were initiated in 96-well plates by co-incubating […] CD8+ T cells with 2×10^5 washed coated beads in 200 μl TCM supplemented with 5 ng/ml IL-12 (PromoCell) for 3 days at 37° C. Half of the medium was then exchanged by fresh TCM supplemented with 80 U/ml IL-2 and incubating was continued for 4 days at 37° C. This stimulation cycle was performed for a total of three times. For the pMHC multimer readout using 8 different pMHC molecules per condition, a two-dimensional combinatorial coding approach was used as previously described (Andersen et al., 2012) with minor modifications encompassing coupling to 5 different fluorochromes. Finally, multimeric analyses were performed by staining the cells with Live/dead near IR dye (Invitrogen, Karlsruhe, Germany), CD8-FITC antibody clone SKI (BD, Heidelberg, Germany) and fluorescent pMHC multimers. For analysis, a BD LSRII SORP cytometer equipped with appropriate lasers and filters was used. Peptide specific cells were calculated as percentage of total CD8+ cells. Evaluation of multimeric analysis was done using the FlowJo software (Tree Star, Oreg., USA). In vitro priming of specific multimer+ CD8+ lymphocytes was detected by comparing to negative control stimulations.

Row | Substance | Wells positive [%]
41 | 98 (VFPRLHNVLF; listed as Homo sapiens) [compound 98] | + (<20% = +)
42 | 102 (VYPFENFEF; listed as Homo sapiens) [compound 102] | +++ (50%-69% = +++)
43 | 103 (NYIPVKNGKQF; listed as Homo sapiens) [compound 103] | + (<20% = +)
44 | 105 (IYNETITDLL; listed as Homo sapiens) [compound 105] | + (<20% = +)
45 | 106 (IYNETVRDLL; listed as Homo sapiens) [compound 106] | + (<20% = +)
